Experiments:
[1] = system: chorda tympani (CT) nerve; experiment: Chorda tympani; assay type: in vivo; details: lingual application in mice; 1, 2, and 4 mmol/L; normalized to NH4Cl 100 mmol/L
[2] = system: human fungiform TBC; experiment: Ca2+ signaling in human fungiform TBC; assay type: cell-based
[3] = system: S typhimurium tester strains TA98, TA100, TA1535, and TA1537 and E coli tester strain WP2uvrA(pKM101); details: all doses with and without S9
[4] = system: C57Bl/6 male mice; experiment: Two-bottle preference and licking tests; assay type: in vivo; details: 50 μmol/L in 0.3% xanthan gum, 12 hours

CCCCC/C=C\C/C=C\CCCCCCCCP(=O)(OCC)OCC [NKS-3, diethyl (9Z,12Z)-octadeca-9,12-dien-1-ylphosphonate]
CT nerve responses compared with dietary LCFAs (LA, OA) [1]: higher | Ca2+ signaling compared with a dietary long-chain fatty acid [2]: higher | increase in intracellular free Ca2+ concentrations, [Ca2+]i ([2]; NKS-3 50 μmol/L, NKS-5 25 μmol/L): induced a rapid increase | toxicity in the tester strains [3]: No toxicity | preference in 2-bottle paradigm versus control solution [4]: significant preference
